According to US6329421A, “Diaryl bicyclic heterocycles as inhibitors of cyclooxygenase-2” (Merck Frosst Canada & Co., priority 1997, dated 2001):

How the values were obtained:
[1] = biological target: T1, cyclooxygenase-2 (Homo sapiens, UniProt P35354); assay: Inhibition of cyclooxygenase activity: Cox-2 (PGE2 production in response to arachidonic acid, radioimmunoassay; human osteosarcoma 143 cells); assay type: cell-based; details: read-out: Cox-2% inhib.; for inhibition at 0.1 µM: Conc. 100 nM; for inhibition at 1 µM: Conc. 1000 nM
T1 construct: human osteosarcoma 143 cells (which specifically express cyclooxygenase-2); endogenous in cells; host or cells: human osteosarcoma 143 cells
T1 sequence (P35354 18-604): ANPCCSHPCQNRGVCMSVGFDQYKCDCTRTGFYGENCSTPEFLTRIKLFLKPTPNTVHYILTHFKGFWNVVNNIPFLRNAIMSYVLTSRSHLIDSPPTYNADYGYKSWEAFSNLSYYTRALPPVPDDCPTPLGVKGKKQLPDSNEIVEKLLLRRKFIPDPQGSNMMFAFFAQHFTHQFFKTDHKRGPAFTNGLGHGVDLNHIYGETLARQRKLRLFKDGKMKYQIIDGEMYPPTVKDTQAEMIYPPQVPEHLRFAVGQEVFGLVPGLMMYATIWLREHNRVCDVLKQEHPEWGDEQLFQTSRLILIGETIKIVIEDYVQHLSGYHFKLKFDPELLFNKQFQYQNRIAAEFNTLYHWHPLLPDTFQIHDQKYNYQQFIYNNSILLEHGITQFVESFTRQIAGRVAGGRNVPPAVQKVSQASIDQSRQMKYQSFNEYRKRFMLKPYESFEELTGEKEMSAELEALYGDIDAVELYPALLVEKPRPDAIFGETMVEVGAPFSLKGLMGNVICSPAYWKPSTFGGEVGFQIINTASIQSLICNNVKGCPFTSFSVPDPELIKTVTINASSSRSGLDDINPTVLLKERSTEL
Method: (§1) Compounds were tested as inhibitors of cyclooxygenase activity in whole cell and microsomal cyclooxygenase assays. Both of these assays measured prostaglandin E2 synthesis in response to arachidonic acid, using a radioimmunoassay. Cells used for whole cell assays, and from which microsomes were prepared for microsomal assays, were human osteosarcoma 143 cells (which specifically express cyclooxygenase-2) and human U-937 cells (which specifically express cyclooxygenase-1). In these assays, 100% activity is defined as the difference between prostaglandin E2 synthesis in the absence and presence of arachidonate addition. Compounds of the present invention are inhibitors of cyclooxygenase-2 and are thereby useful in the treatment of cyclooxygenase-2 mediated diseases as enumerated above. The activities of the compounds against cyclooxygenase may be seen in the representative results shown below. In the assay, inhibition is determined by measuring the amount of prostaglandin E2 (PGE2) synthesized in the presence of arachidonic acid, cyclooxygenase-1 or cyclooxygenase-2 and a putative inhibitor. The IC50 values represent the concentration of putative inhibitor required to return PGE2 synthesis to 50% of that obtained as compared to the uninhibited control. For purposes of this specification, a compound is a selective inhibitor of COX-2 over COX-1 if the ratio of IC50 's for COX-1: COX-2 is 100 or greater, preferably 500 or greater. The results for inhibition of PGE2 production may be seen in Table III.

[2] = biological target: T2, cyclooxygenase-1 (Homo sapiens, UniProt P23219); assay: Inhibition of cyclooxygenase activity: Cox-1 (PGE2 production in response to arachidonic acid, radioimmunoassay; human U-937 cells); assay type: cell-based; details: read-out: Cox-1% inhib.; for inhibition at 1 µM: Conc. 1000 nM; for inhibition at 0.1 µM: Conc. 100 nM
T2 construct: human U-937 cells (which specifically express cyclooxygenase-1); endogenous in cells; host or cells: human U-937 cells
Method: as §1

T2 sequence (P23219 24-599): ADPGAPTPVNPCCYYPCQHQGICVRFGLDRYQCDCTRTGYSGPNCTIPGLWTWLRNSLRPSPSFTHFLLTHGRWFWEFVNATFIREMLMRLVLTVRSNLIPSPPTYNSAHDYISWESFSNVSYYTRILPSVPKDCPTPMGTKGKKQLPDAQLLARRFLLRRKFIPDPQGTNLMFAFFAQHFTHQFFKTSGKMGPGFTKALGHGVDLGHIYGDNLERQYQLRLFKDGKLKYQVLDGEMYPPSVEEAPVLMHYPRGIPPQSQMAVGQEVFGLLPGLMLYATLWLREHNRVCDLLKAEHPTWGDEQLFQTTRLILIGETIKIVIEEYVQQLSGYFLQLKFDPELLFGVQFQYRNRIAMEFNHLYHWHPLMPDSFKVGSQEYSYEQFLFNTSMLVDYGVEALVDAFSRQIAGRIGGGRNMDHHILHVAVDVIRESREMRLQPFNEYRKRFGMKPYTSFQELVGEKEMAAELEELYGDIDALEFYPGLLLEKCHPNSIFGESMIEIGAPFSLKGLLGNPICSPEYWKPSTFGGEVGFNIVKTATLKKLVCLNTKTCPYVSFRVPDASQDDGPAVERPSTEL

Structure (SMILES)	inhibition at 0.1 µM [1] [%]	inhibition at 1 µM [1] [%]	inhibition at 1 µM [2] [%]	inhibition at 0.1 µM [2] [%]	also measured
NS(=O)(=O)c1ccc(-c2c(-c3ccc(F)c(F)c3)sc3c2COC3=O)cc1 [Example 9, 2-(3,4-Difluorophenyl)-3-(4-(aminosulfonyl)phenyl)4H-thieno-[2,3-c]furan-6-one]	98	99	21		
CS(=O)(=O)c1ccc(-c2[nH]c3ccccc3c2-c2ccc(F)cc2)cc1 [Example 5, 3-(4-Fluorophenyl)-2-(4-(methylsulfonyl)phenyl)indole]	86			21	
NS(=O)(=O)c1ccc(-c2c(-c3ccc(F)cc3)sc3c2COC3=O)cc1 [Example 8, 2-(4-Fluorophenyl)-3-(4-(aminosulfonyl)phenyl)-4H-thieno[2,3-c]furan-6-one]	42				inhibition at 10 µM ([2]; Conc. 10000 nM): 26%
CS(=O)(=O)c1ccc(-c2c(-c3ccc(F)cc3)sc3c2COC3=O)cc1 [Example 6, 2-(4-Fluorophenyl)-3-(4-(methylsulfonyl)phenyl)-4H-thieno[2,3-c]furan-6-one]					inhibition at 0.015 µM ([1]; Conc. 15 nM): 50%; inhibition at 0.015 µM ([2]; Conc. 15 nM): 0%
CS(=O)(=O)c1ccc(-c2c(-c3ccccc3)sc3c2CC(=O)OC3)cc1 [Example 10, 3-(4-(Methylsulfonyl)phenyl)-2-phenyl-4,7-dihydro-thieno[2,3-c]pyran-5-one]	65	91	28		
CS(=O)(=O)c1ccc(-c2c(-c3ccc(F)c(F)c3)sc3c2COC3=O)cc1 [Example 7, 2-(3,4-Difluorophenyl)-3-(4-(methylsulfonyl)phenyl)-4H-thieno[2,3-c]-furan-6-one]	64	100	4		

Now from value to molecule, other results behind:

inhibition at 0.1 µM [1] [%]	inhibition at 1 µM [1] [%]	inhibition at 1 µM [2] [%]	inhibition at 0.1 µM [2] [%]	Structure (SMILES)	also measured
	17	3		CS(=O)(=O)c1ccc(-c2c(-c3ccccc3)sc3ccccc23)cc1 [Example 2, 3-(4-(Methanesulfonyl)phenyl)-2-phenylbenzo[b]thiophene]	
80			5	CS(=O)(=O)c1ccc(C2=C(c3ccccc3)C(=O)c3ccccc32)cc1 [Example 3, 3-(4-(Methylsulfonyl)phenyl)-2-phenylinden-1-one]	
94			0	CS(=O)(=O)c1ccc(-c2c(-c3ccccc3)oc3ccccc23)cc1 [Example 1, 3-(4-(Methylsulfonyl)phenyl)-2-phenylbenzo[b]furan]	
		0		CS(=O)(=O)c1ccc(-c2c(-c3ccc(F)cc3)[nH]c3ccccc23)cc1 [Example 4, 2-(4-Fluorophenyl)-3-(4-(methylsulfonyl)phenyl)indole]	inhibition at 0.01 µM ([1]; Conc. 10 nM): 58%
